Tested on: E. coli DH5α
Assay: Antibacterial activity: MIC and growth curve against E. coli DH5α in 96-well plate
Type: cell-based
Conditions: minimal inhibitory concentration against E. coli DH5α; 96-well plate, 5×10^5 CFU/mL, 37° C., judged after 8 h
Outline: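 MIC taken as lowest protein level with no bacterial growth, tracked by A600 every 30 min during 37 °C, 175 rpm culture. Two-fold protein series 50-12.5 μg/mL final, triplicate wells, against 5×10^5 CFU/mL of LB-washed mid-log cells.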

Q: Which MIC does the source give for “PRT443 (DIDECENTDACQHECKNTFGSYQCICPPGYQLTHNGKTCQ; listed as Homo sapiens)” here?
A: 12.5 µg/mL

Q: How did the MIC turn out when “PRT242 (CEPGCKFGECVGPNKCRCFPGYTGKTC; listed as Homo sapiens)” was run?
A: 12.5 µg/mL

Q: For “PRT399 (DVDECRMLAHLCAHGECINSLGSFRCHCQAGYTPDATATTCL; listed as Homo sapiens)”, which MIC is on record?
A: 12.5 µg/mL

Q: “PRT791 (SQECQCHNGGTCDAATGQCHCSPGYTGERCQ; listed as Homo sapiens)” was tested. Which MIC did it give?
A: 50 µg/mL

Tested on: E. coli BL21
Assay: MIC against Gram-negative bacteria: E. coli BL21
Type: cell-based
Conditions: E. coli BL21; 10 h cultivation at 37° C.; 5×10^5 CFU/mL
Outline: (§1)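 Read-out is absence of bacterial growth, with MIC set at the lowest recombinant protein concentration achieving it. Bacteria, pre-grown in LB to McFarland 0.5 and resuspended, were exposed at 5×10^5 CFU/mL to two-fold diluted human EGF domain proteins in triplicate at 37° C, 175 rpm.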

Q: With “PRT443 (DIDECENTDACQHECKNTFGSYQCICPPGYQLTHNGKTCQ; listed as Homo sapiens)” as the substance, how does the MIC read?
A: 25 µg/mL

Q: For “PRT242 (CEPGCKFGECVGPNKCRCFPGYTGKTC; listed as Homo sapiens)”, which “MIC (μg/mL) E. coli BL21” value is on record?
A: 12.5 µg/mL

Q: Which MIC does the source give for “PRT399 (DVDECRMLAHLCAHGECINSLGSFRCHCQAGYTPDATATTCL; listed as Homo sapiens)” here?
A: 50 µg/mL

Q: With “PRT791 (SQECQCHNGGTCDAATGQCHCSPGYTGERCQ; listed as Homo sapiens)” as the substance, how does the “MIC (μg/mL) E. coli BL21” value read?
A: 12.5 µg/mL

Tested on: Pseudomonas aeruginosa
Assay: MIC against Gram-negative bacteria: Pseudomonas aeruginosa
Type: cell-based
Conditions: P. aeruginosa; 10 h cultivation at 37° C.; 5×10^5 CFU/mL
Outline: as §1

Q: “PRT443 (DIDECENTDACQHECKNTFGSYQCICPPGYQLTHNGKTCQ; listed as Homo sapiens)” was tested. Which MIC did it give?
A: 12.5 µg/mL

Q: For “PRT242 (CEPGCKFGECVGPNKCRCFPGYTGKTC; listed as Homo sapiens)”, which “MIC (μg/mL) P. aeruginosa” value is on record?
A: 50 µg/mL

Q: With “PRT399 (DVDECRMLAHLCAHGECINSLGSFRCHCQAGYTPDATATTCL; listed as Homo sapiens)” as the substance, how does the MIC read?
A: 12.5 µg/mL

Q: “PRT791 (SQECQCHNGGTCDAATGQCHCSPGYTGERCQ; listed as Homo sapiens)” was tested. Which “MIC (μg/mL) P. aeruginosa” value did it give?
A: 50 µg/mL

Tested on: Klebsiella pneumonia
Assay: MIC against Gram-negative bacteria: Klebsiella pneumonia
Type: cell-based
Conditions: K. pneumonia; 10 h cultivation at 37° C.; 5×10^5 CFU/mL
Outline: as §1

Q: Which MIC does the source give for “PRT443 (DIDECENTDACQHECKNTFGSYQCICPPGYQLTHNGKTCQ; listed as Homo sapiens)” here?
A: 12.5 µg/mL

Q: With “PRT242 (CEPGCKFGECVGPNKCRCFPGYTGKTC; listed as Homo sapiens)” as the substance, how does the “MIC (μg/mL) K. pneumonia” value read?
A: 50 µg/mL

Q: “PRT399 (DVDECRMLAHLCAHGECINSLGSFRCHCQAGYTPDATATTCL; listed as Homo sapiens)” was tested. Which MIC did it give?
A: 50 µg/mL

Q: Which “MIC (μg/mL) K. pneumonia” value does the source give for “PRT791 (SQECQCHNGGTCDAATGQCHCSPGYTGERCQ; listed as Homo sapiens)” here?
A: 12.5 µg/mL

Tested on: Enterobacter cloacae
Assay: MIC against Gram-negative bacteria: Enterobacter cloacae
Type: cell-based
Conditions: E. cloacae; 10 h cultivation at 37° C.; 5×10^5 CFU/mL
Outline: as §1

Q: With “PRT443 (DIDECENTDACQHECKNTFGSYQCICPPGYQLTHNGKTCQ; listed as Homo sapiens)” as the substance, how does the MIC read?
A: 12.5 µg/mL

Q: “PRT242 (CEPGCKFGECVGPNKCRCFPGYTGKTC; listed as Homo sapiens)” was tested. Which “MIC (μg/mL) E. cloacae” value did it give?
A: 12.5 µg/mL

Q: With “PRT399 (DVDECRMLAHLCAHGECINSLGSFRCHCQAGYTPDATATTCL; listed as Homo sapiens)” as the substance, how does the MIC read?
A: 12.5 µg/mL

Q: With “PRT791 (SQECQCHNGGTCDAATGQCHCSPGYTGERCQ; listed as Homo sapiens)” as the substance, how does the “MIC (μg/mL) E. cloacae” value read?
A: 50 µg/mL

Tested on: Aeromonas hydrophila
Assay: MIC against Gram-negative bacteria: Aeromonas hydrophila
Type: cell-based
Conditions: A. hydrophila; 10 h cultivation at 37° C.; 5×10^5 CFU/mL
Outline: as §1

Q: How did the MIC turn out when “PRT443 (DIDECENTDACQHECKNTFGSYQCICPPGYQLTHNGKTCQ; listed as Homo sapiens)” was run?
A: 12.5 µg/mL

Q: “PRT242 (CEPGCKFGECVGPNKCRCFPGYTGKTC; listed as Homo sapiens)” was tested. Which “MIC (μg/mL) A. hydrophila” value did it give?
A: 12.5 µg/mL

Q: How did the MIC turn out when “PRT399 (DVDECRMLAHLCAHGECINSLGSFRCHCQAGYTPDATATTCL; listed as Homo sapiens)” was run?
A: 50 µg/mL

Q: Which “MIC (μg/mL) A. hydrophila” value does the source give for “PRT791 (SQECQCHNGGTCDAATGQCHCSPGYTGERCQ; listed as Homo sapiens)” here?
A: 12.5 µg/mL

Tested on: Citrobacter diversus
Assay: MIC against Gram-negative bacteria: Citrobacter diversus
Type: cell-based
Conditions: C. diversus; 10 h cultivation at 37° C.; 5×10^5 CFU/mL
Outline: as §1

Q: With “PRT443 (DIDECENTDACQHECKNTFGSYQCICPPGYQLTHNGKTCQ; listed as Homo sapiens)” as the substance, how does the MIC read?
A: 25 µg/mL

Q: How did the “MIC (μg/mL) C. diversus” value turn out when “PRT242 (CEPGCKFGECVGPNKCRCFPGYTGKTC; listed as Homo sapiens)” was run?
A: 12.5 µg/mL

Q: For “PRT399 (DVDECRMLAHLCAHGECINSLGSFRCHCQAGYTPDATATTCL; listed as Homo sapiens)”, which MIC is on record?
A: 12.5 µg/mL

Q: “PRT791 (SQECQCHNGGTCDAATGQCHCSPGYTGERCQ; listed as Homo sapiens)” was tested. Which “MIC (μg/mL) C. diversus” value did it give?
A: 25 µg/mL

Tested on: Moraxella catarrhalis
Assay: MIC against Gram-negative bacteria: Moraxella catarrhalis
Type: cell-based
Conditions: M. catarrhalis; 10 h cultivation at 37° C.; 5×10^5 CFU/mL
Outline: as §1

Q: How did the MIC turn out when “PRT443 (DIDECENTDACQHECKNTFGSYQCICPPGYQLTHNGKTCQ; listed as Homo sapiens)” was run?
A: 12.5 µg/mL

Q: “PRT242 (CEPGCKFGECVGPNKCRCFPGYTGKTC; listed as Homo sapiens)” was tested. Which “MIC (μg/mL) M. catarrhalis” value did it give?
A: 12.5 µg/mL

Q: With “PRT399 (DVDECRMLAHLCAHGECINSLGSFRCHCQAGYTPDATATTCL; listed as Homo sapiens)” as the substance, how does the MIC read?
A: 50 µg/mL

Q: How did the “MIC (μg/mL) M. catarrhalis” value turn out when “PRT791 (SQECQCHNGGTCDAATGQCHCSPGYTGERCQ; listed as Homo sapiens)” was run?
A: 50 µg/mL

Tested on: Proteus mirabilis
Assay: MIC against Gram-negative bacteria: Proteus mirabilis
Type: cell-based
Conditions: P. mirabilis; 10 h cultivation at 37° C.; 5×10^5 CFU/mL
Outline: as §1

Q: Which MIC does the source give for “PRT443 (DIDECENTDACQHECKNTFGSYQCICPPGYQLTHNGKTCQ; listed as Homo sapiens)” here?
A: 25 µg/mL

Q: “PRT242 (CEPGCKFGECVGPNKCRCFPGYTGKTC; listed as Homo sapiens)” was tested. Which “MIC (μg/mL) P. mirabilis” value did it give?
A: 12.5 µg/mL

Q: For “PRT399 (DVDECRMLAHLCAHGECINSLGSFRCHCQAGYTPDATATTCL; listed as Homo sapiens)”, which MIC is on record?
A: 12.5 µg/mL

Q: How did the “MIC (μg/mL) P. mirabilis” value turn out when “PRT791 (SQECQCHNGGTCDAATGQCHCSPGYTGERCQ; listed as Homo sapiens)” was run?
A: 25 µg/mL

Tested on: Proteus vulgaris
Assay: MIC against Gram-negative bacteria: Proteus vulgaris
Type: cell-based
Conditions: P. vulgaris; 10 h cultivation at 37° C.; 5×10^5 CFU/mL
Outline: as §1

Q: With “PRT443 (DIDECENTDACQHECKNTFGSYQCICPPGYQLTHNGKTCQ; listed as Homo sapiens)” as the substance, how does the MIC read?
A: 12.5 µg/mL

Q: With “PRT242 (CEPGCKFGECVGPNKCRCFPGYTGKTC; listed as Homo sapiens)” as the substance, how does the “MIC (μg/mL) P. vulgaris” value read?
A: 12.5 µg/mL

Q: For “PRT399 (DVDECRMLAHLCAHGECINSLGSFRCHCQAGYTPDATATTCL; listed as Homo sapiens)”, which MIC is on record?
A: 50 µg/mL

Q: “PRT791 (SQECQCHNGGTCDAATGQCHCSPGYTGERCQ; listed as Homo sapiens)” was tested. Which “MIC (μg/mL) P. vulgaris” value did it give?
A: 12.5 µg/mL

Tested on: Serratia marcescens
Assay: MIC against Gram-negative bacteria: Serratia marcescens
Type: cell-based
Conditions: S. marcescens; 10 h cultivation at 37° C.; 5×10^5 CFU/mL
Outline: as §1

Q: With “PRT443 (DIDECENTDACQHECKNTFGSYQCICPPGYQLTHNGKTCQ; listed as Homo sapiens)” as the substance, how does the MIC read?
A: 50 µg/mL

Q: With “PRT242 (CEPGCKFGECVGPNKCRCFPGYTGKTC; listed as Homo sapiens)” as the substance, how does the “MIC (μg/mL) S. marcescens” value read?
A: 12.5 µg/mL

Q: Which MIC does the source give for “PRT399 (DVDECRMLAHLCAHGECINSLGSFRCHCQAGYTPDATATTCL; listed as Homo sapiens)” here?
A: 12.5 µg/mL

Q: Which “MIC (μg/mL) S. marcescens” value does the source give for “PRT791 (SQECQCHNGGTCDAATGQCHCSPGYTGERCQ; listed as Homo sapiens)” here?
A: 12.5 µg/mL

Source: patent US9833497B2, “Human originated EGF domain proteins and use of the same” (CHENGDU SOURCEBIO LIMITED-LIABILITY COMPANY, priority 2013, dated 2017)
